Laboratory results as given in patent US12030876B2, “Aryl hydrocarbon receptor (AHR) agonists and uses thereof” (Ikena Oncology, Inc., priority 2019, dated 2024).
Like-named read-outs stand apart in the source and are kept apart here.

Tests used:
AHR [1] = target: T1, AHR (Homo sapiens, UniProt P35869); test: DRE-Luciferase Reporter Assay, HepG2 (agonist); type: cell-based; details: read-out: DRE-Luc HepG2 - Agonist: Average EC50
T1 construct: endogenous in cells; host or cells: HepG2 (human), transfected with a DRE-luciferase reporter only
T1 sequence (P35869 11-848): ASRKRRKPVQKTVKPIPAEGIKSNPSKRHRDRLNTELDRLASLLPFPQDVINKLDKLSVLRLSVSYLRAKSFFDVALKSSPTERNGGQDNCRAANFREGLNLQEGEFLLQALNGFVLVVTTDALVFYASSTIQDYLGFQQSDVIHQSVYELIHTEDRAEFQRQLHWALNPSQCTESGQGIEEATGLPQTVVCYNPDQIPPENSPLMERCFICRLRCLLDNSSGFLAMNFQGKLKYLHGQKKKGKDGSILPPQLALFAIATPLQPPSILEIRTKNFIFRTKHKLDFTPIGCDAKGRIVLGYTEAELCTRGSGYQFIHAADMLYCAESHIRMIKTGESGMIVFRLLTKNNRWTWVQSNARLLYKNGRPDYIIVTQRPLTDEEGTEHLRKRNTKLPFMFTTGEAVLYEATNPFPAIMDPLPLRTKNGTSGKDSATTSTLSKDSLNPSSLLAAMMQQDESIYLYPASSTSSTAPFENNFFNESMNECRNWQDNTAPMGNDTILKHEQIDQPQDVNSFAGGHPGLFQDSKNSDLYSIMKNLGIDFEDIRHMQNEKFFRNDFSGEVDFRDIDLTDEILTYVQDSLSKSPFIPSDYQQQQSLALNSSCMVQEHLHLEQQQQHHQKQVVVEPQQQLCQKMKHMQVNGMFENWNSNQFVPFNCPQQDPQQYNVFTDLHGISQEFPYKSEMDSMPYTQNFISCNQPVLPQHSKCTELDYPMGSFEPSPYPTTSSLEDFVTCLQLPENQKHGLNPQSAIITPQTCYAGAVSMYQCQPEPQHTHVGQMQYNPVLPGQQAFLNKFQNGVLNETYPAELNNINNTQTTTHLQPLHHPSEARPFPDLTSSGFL
How it was run: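 Cells carrying a stably or transiently transfected DRE-luciferase reporter, plated overnight at 37 C, then given agonist for 6, 16 or 24 h before lysis and luciferase read-out. Signal scaled between no ligand (minimum) and activating ligand alone, e.g. TCDD (maximum); EC50 = concentration giving half-maximal luciferase activity.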

AHR [2] = target: T2, AHR (Mus musculus, UniProt P30561); test: P450 CYP1A1 Luciferase Assay, Hepa1.6 (agonist); type: cell-based, murine; details: Hepa1.6, Table 2
T2 sequence (P30561 1-848 F348L/P471L): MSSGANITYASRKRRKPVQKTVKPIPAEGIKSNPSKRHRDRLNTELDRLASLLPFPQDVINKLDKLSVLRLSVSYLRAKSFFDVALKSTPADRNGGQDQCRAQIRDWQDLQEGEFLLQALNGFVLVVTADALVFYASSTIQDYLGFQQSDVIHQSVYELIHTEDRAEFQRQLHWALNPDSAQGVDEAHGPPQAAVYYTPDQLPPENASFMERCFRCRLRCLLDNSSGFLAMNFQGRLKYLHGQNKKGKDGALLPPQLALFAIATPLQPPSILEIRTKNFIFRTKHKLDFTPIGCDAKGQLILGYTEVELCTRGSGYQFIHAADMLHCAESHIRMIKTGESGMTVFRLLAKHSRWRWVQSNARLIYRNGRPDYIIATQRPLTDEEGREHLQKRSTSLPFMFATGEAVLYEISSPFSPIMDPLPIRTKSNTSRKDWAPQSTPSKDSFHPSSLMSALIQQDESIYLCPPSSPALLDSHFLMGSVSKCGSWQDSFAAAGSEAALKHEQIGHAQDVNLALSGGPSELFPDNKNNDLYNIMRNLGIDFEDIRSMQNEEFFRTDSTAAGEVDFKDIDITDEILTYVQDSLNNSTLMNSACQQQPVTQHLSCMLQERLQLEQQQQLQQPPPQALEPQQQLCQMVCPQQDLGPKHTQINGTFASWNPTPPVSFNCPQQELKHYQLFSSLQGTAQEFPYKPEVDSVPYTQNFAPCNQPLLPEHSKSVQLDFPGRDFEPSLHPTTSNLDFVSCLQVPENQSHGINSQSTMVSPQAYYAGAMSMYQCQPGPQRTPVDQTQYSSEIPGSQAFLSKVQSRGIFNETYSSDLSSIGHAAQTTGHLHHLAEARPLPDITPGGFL
Procedure: P450 CYP1A1 Luciferase Assay
AHR binds to Dioxin Responsive Elements (DRE) upstream of genes that it activates. One measure of AHR activity is P450 CYP1A1 protein levels determined by measuring CYP1A1 enzyme activity using a luminogenic CYP1A1 luciferin-based substrate. Luciferase activity will reflect CYP1A1 activity resulting from activation of AHR in the cells.
Murine Hepa1-6 or Hepa-1c1c7 or other murine cell line, human HepG2 or other human cell line are plated in media (96-well, 384-well or other plates) and incubated overnight at 37 C in a CO2 incubator.
(§1) The next day, an AHR agonist compound is added. Cells are incubated for 6, 16 or 24 hours or another time point and then lysed and incubated with a CYP1A1 luciferase-based substrate (e.g. Luciferin-CEE) for 3, 6, or 12 hours of another time point. Determination of luciferase activity as a read-out of CYP1A1 enzyme activity can be measured with a commercial kit such as the Promega P450 Glo CYP1A1 detection reagent or any kit or reagents that provide for measuring luciferase activity. The level of luciferase with only activating ligand (e.g. such as TCDD, kynurenine, ITE (2-(1H-indole-3-ylcarbonyl)-4-thiazolecarboxylic methyl ester), VAF347, BNF (beta-naphthoflavone), ICZ (6-formylindolo(3,2-b) carbazole or other AHR ligands) added is the maximum signal while the luciferase with no ligand is the minimum signal. EC50s can be determined as the concentration which activates half of the maximum luciferase activity.

[3] = tested on: DSS model of Inflammatory Bowel Disease (IBD); type: in vivo, C57Bl/6 mice
Procedure: On study day −1, C57Bl/6 mice are weighed and randomized into treatment groups based on body weight. On study day 0, treatment groups are given 2.5% DSS in drinking water and treatment is initiated on the same day, with either vehicle or AHR agonist compound(s). On study day 7, DSS drinking water is replaced with normal drinking water for the remainder of the study. Body weight is measured daily during the entire study. On study day 10, animals are anesthetized with Isoflurane and bled to exsanguination followed by cervical dislocation. The entire colon is removed and measured for length, weight, and weight per length. Overall efficacy of test AR agonist compounds is based on body weight, colon length, and colon histopathology. Histopathology data is assessed for appropriate parameters, as determined by a pathologist and the parameters for these DSS studies can include inflammation, erosion, gland loss, edema, hyperplasia, neutrophil count, mucosal thickening, lymphoid aggregate count and lymphoid aggregate size. The different parameter scores can be added for a summed score for the study histopathology.

Cyp1a1 gene expression = tested on: Cyp1a1 gene expression; parameters: species or system C57BL/6N mice; details: mouse, in vivo
Procedure: C57BL/6N mice are weighed and randomized into treatment groups with group size of 3-5 mice. On study Day 1, treatment is initiated and necropsies follow on day 1 at 4 and 12 hours post-dose and on Day 2, 24 hours post-dose. On Day 1, mice are dosed orally with one dose of the AHR agonist compound(s) that are in a suspension and mixed well before dosing. At the designated time, animals are euthanized and plasma and tissue taken for compound levels (PK) and compound effect (PD) on gene expression. Liver samples and proximal colon are weighed and then frozen for subsequent RNA extraction and RT-PCR analysis. AHR activation is determined by measuring Cyp1a1 gene expression relative to a housekeeping gene, such as GAPDH or HPRT. Cyp1a1 expression levels in the liver are compared to Cyp1a1 levels in the colon to determine a colon:liver ratio to determine the level of GI preferred AHR activation.

AHR [4] = target: T2, AHR; test: DRE-Luciferase Reporter Assay, Hepa1.6 (agonist); type: cell-based, murine; details: Hepa1.6, Table 3; read-out: DRE-Luc Hepa1.6 - Agonist: Average EC50
Procedure: DRE-Luciferase Reporter Assay
AHR binds to Dioxin Responsive Elements (DRE) upstream of genes that it activates. One measure of AHR activity is activation of a reporter gene, such as luciferase, downstream of one or multiple DRE elements. Luciferase activity reflects activation and inhibition of AHR in the cells expressing this reporter.
Murine Hepa1-6 or Hepa-1c1c7 or other murine cell line with a DRE-luciferase reporter either stably or transiently transfected are plated in media in plates (96-well, 384-well or other plates) and incubated overnight at 37 C in a CO2 incubator. Likewise, human HepG2 or other human cell line with a DRE-luciferase reporter either stably or transiently transfected are plated in media in plates (96-well, 384-well or other plates) and incubated overnight at 37 C in a CO2 incubator.
as §1, with “lysed” for “lysed and incubated with a CYP1A1 luciferase-based substrate (e.g. Luciferin-CEE)”, “determination” for “3, 6, or 12 hours of another time point. Determination”, “the AHR activation. Luciferase” for “CYP1A1 enzyme activity”, “Luciferase kit” for “P450 Glo CYP1A1 detection reagent”, “provide the luciferin substrate” for “provide”

In the case of `FC(F)(F)c1cccc(Nc2nc(-c3cccc(/N=N/c4cccc(-c5csc(Nc6cccc(C(F)(F)F)c6)n5)c4)c3)cs2)c1` [I-41], the EC50 (AHR [1]; HepG2, Table 2) is reported as 0.1 to 1 µM, the EC50 (AHR [2]) is reported as over 1 µM and the “histology evaluation of inflammation” value ([3]; DSS model, compared with ITE administration, FIG. 8) is reported as “comparable activity”.
For `O=C(O)c1cccc(/N=N/c2cccc(-c3csc(Nc4cccc(C(F)(F)F)c4)n3)c2)c1` [I-161], the EC50 (AHR [1]; HepG2, Table 3) was 0.1 to 1 µM, the “Cyp1a1 induction in the colon” value (Cyp1a1 gene expression; C57BL/6N, po) was “Cyp1a1 induction in the colon at low doses” and the “Cyp1a1 induction in the colon” value (Cyp1a1 gene expression) was “comparable”. For the same molecule, the “Cyp1a1 induction in the liver” value (Cyp1a1 gene expression) was “significantly less induction”, the “colon:liver ratio of Cyp1a1 expression” value (Cyp1a1 gene expression) was “colon-preferred activity” and the EC50 (AHR [4]) was over 1 µM. For the same molecule, the “inflammation and erosion (histopathology)” value ([3]; DSS model, relative to vehicle control, FIG. 6, FIG. 19) was “reduced inflammation and erosion”, the “activity at all doses compared with CSA” value ([3]; DSS model, FIG. 18B) was “comparable or better than CSA” and the “histopathology data compared with CSA” value ([3]; DSS model, FIG. 18B) was “activity comparable to CSA”. The “inflammation, edema, hyperplasia, and lymphoid aggregate size” value ([3]; DSS model, FIG. 19) was “reduction” and the “efficacy in DSS IBD mouse model” value ([3]; FIGS. 18A-18B) was “demonstrates efficacy”.
In the case of `O=C(O)c1cc(/N=N/c2cc(-c3csc(Nc4cccc(C(F)(F)F)c4)n3)ccc2F)ccc1O` [I-178], the EC50 (AHR [1]; HepG2, Table 3) is reported as over 1 µM and the EC50 (AHR [4]) is reported as over 1 µM.
`O=C(O)c1cc(/N=N/c2ccc(F)c(-c3csc(Nc4cccc(C(F)(F)F)c4)n3)c2)ccc1O` [I-179] gave an EC50 (AHR [1]; HepG2, Table 3) of 0.1 to 1 µM and an EC50 (AHR [4]) of over 1 µM.
